Assay results as given in PubChem BioAssay (NCI).
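96-well plates; 48 h exposure; 5 concentrations. Endpoints by linear interpolation between flanking doses. Not reached: highest tested concentration assigned. Definition used: TGI = concentration required for complete inhibition of growth.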

Tests used:
Assay in all cases: DTP human tumour cell line panel, 48 h
A498 renal = tested on: A498 renal
A549 NSCLC = tested on: A549 NSCLC
ACHN renal = tested on: ACHN renal
BT-549 breast = tested on: BT-549 breast
CAKI-1 renal = tested on: CAKI-1 renal
CCRF-CEM leukemia = tested on: CCRF-CEM leukemia
DU-145 prostate = tested on: DU-145 prostate
EKVX NSCLC = tested on: EKVX NSCLC
HCC-2998 colon = tested on: HCC-2998 colon
HCT-116 colon = tested on: HCT-116 colon
HCT-15 colon = tested on: HCT-15 colon
HL-60(TB) leukemia = tested on: HL-60(TB) leukemia
HOP-62 NSCLC = tested on: HOP-62 NSCLC
HOP-92 NSCLC = tested on: HOP-92 NSCLC
HS 578T breast = tested on: HS 578T breast
HT29 colon = tested on: HT29 colon
IGROV1 ovarian = tested on: IGROV1 ovarian
K-562 leukemia = tested on: K-562 leukemia
KM12 colon = tested on: KM12 colon
LOX IMVI melanoma = tested on: LOX IMVI melanoma
M14 melanoma = tested on: M14 melanoma
MALME-3M melanoma = tested on: MALME-3M melanoma
MCF7 breast = tested on: MCF7 breast
MDA-MB-231 breast = tested on: MDA-MB-231 breast
MDA-MB-435 = tested on: MDA-MB-435
MDA-N = tested on: MDA-N
MOLT-4 leukemia = tested on: MOLT-4 leukemia
NCI-H226 lung = tested on: NCI-H226 lung
NCI-H23 lung = tested on: NCI-H23 lung
NCI-H460 lung = tested on: NCI-H460 lung
NCI-H522 lung = tested on: NCI-H522 lung
OVCAR-3 ovarian = tested on: OVCAR-3 ovarian
OVCAR-5 ovarian = tested on: OVCAR-5 ovarian
RPMI-8226 leukemia = tested on: RPMI-8226 leukemia
RXF 393 renal = tested on: RXF 393 renal
SF-268 CNS = tested on: SF-268 CNS
SF-539 CNS = tested on: SF-539 CNS
SK-MEL-2 melanoma = tested on: SK-MEL-2 melanoma
SK-MEL-28 melanoma = tested on: SK-MEL-28 melanoma
SK-MEL-5 melanoma = tested on: SK-MEL-5 melanoma
SK-OV-3 ovarian = tested on: SK-OV-3 ovarian
SN12C renal = tested on: SN12C renal
SNB-19 CNS = tested on: SNB-19 CNS
SNB-75 CNS = tested on: SNB-75 CNS
SR leukemia = tested on: SR leukemia
SW-620 colon = tested on: SW-620 colon
T-47D breast = tested on: T-47D breast
TK-10 renal = tested on: TK-10 renal
U251 CNS = tested on: U251 CNS
UACC-257 melanoma = tested on: UACC-257 melanoma
UACC-62 melanoma = tested on: UACC-62 melanoma
UO-31 renal = tested on: UO-31 renal
786-0 renal = tested on: 786-0 renal
COLO 205 colon = tested on: COLO 205 colon
OVCAR-4 ovarian = tested on: OVCAR-4 ovarian
OVCAR-8 ovarian = tested on: OVCAR-8 ovarian
PC-3 prostate = tested on: PC-3 prostate
SF-295 CNS = tested on: SF-295 CNS

CCOC(=O)NC(Nc1cc(Cl)ccc1OC)(C(F)(F)F)C(F)(F)F
TGI (A498 renal): > 100 µM
TGI (A549 NSCLC): > 100 µM
TGI (ACHN renal): > 100 µM
TGI (BT-549 breast): > 100 µM
TGI (CAKI-1 renal): > 100 µM
TGI (CCRF-CEM leukemia): > 100 µM
TGI (DU-145 prostate): > 100 µM
TGI (EKVX NSCLC): > 100 µM
TGI (HCC-2998 colon): > 100 µM
TGI (HCT-116 colon): > 100 µM
TGI (HCT-15 colon): > 100 µM
TGI (HL-60(TB) leukemia): > 100 µM
TGI (HOP-62 NSCLC): > 100 µM
TGI (HOP-92 NSCLC): > 100 µM
TGI (HS 578T breast): > 100 µM
TGI (HT29 colon): > 100 µM
TGI (IGROV1 ovarian): > 100 µM
TGI (K-562 leukemia): > 100 µM
TGI (KM12 colon): > 100 µM
TGI (LOX IMVI melanoma): > 100 µM
TGI (M14 melanoma): > 100 µM
TGI (MALME-3M melanoma): > 100 µM
TGI (MCF7 breast): > 100 µM
TGI (MDA-MB-231 breast): > 100 µM
TGI (MDA-MB-435): > 100 µM
TGI (MDA-N): > 100 µM
TGI (MOLT-4 leukemia): > 100 µM
TGI (NCI-H226 lung): > 100 µM
TGI (NCI-H23 lung): > 100 µM
TGI (NCI-H460 lung): > 100 µM
TGI (NCI-H522 lung): > 100 µM
TGI (OVCAR-3 ovarian): > 100 µM
TGI (OVCAR-5 ovarian): > 100 µM
TGI (RPMI-8226 leukemia): > 100 µM
TGI (RXF 393 renal): > 100 µM
TGI (SF-268 CNS): > 100 µM
TGI (SF-539 CNS): > 100 µM
TGI (SK-MEL-2 melanoma): > 100 µM
TGI (SK-MEL-28 melanoma): > 100 µM
TGI (SK-MEL-5 melanoma): > 100 µM
TGI (SK-OV-3 ovarian): > 100 µM
TGI (SN12C renal): > 100 µM
TGI (SNB-19 CNS): > 100 µM
TGI (SNB-75 CNS): > 100 µM
TGI (SR leukemia): > 100 µM
TGI (SW-620 colon): > 100 µM
TGI (T-47D breast): > 100 µM
TGI (TK-10 renal): > 100 µM
TGI (U251 CNS): > 100 µM
TGI (UACC-257 melanoma): > 100 µM
TGI (UACC-62 melanoma): > 100 µM
TGI (UO-31 renal): > 100 µM

CCC(C)C(N)C(=O)N/N=C\c1c2c(nc3ccccc13)-c1cc3c(c(=O)n1C2)COC(=O)[C@]3(O)CC (some centres not stated)
TGI (786-0 renal): 1.12 µM
TGI (A498 renal): 1.43 µM
TGI (A549 NSCLC): 14.2 µM
TGI (ACHN renal): 0.575 µM
TGI (BT-549 breast): > 30.2 µM
TGI (CAKI-1 renal): 65.5 µM
TGI (COLO 205 colon): > 51.6 µM
TGI (DU-145 prostate): 2.04 µM
TGI (EKVX NSCLC): > 100 µM
TGI (HCC-2998 colon): 15.2 µM
TGI (HCT-116 colon): 2.96 µM
TGI (HCT-15 colon): > 100 µM
TGI (HL-60(TB) leukemia): 0.68 µM
TGI (HOP-62 NSCLC): 1.15 µM
TGI (HOP-92 NSCLC): 1.8 µM
TGI (HS 578T breast): > 100 µM
TGI (HT29 colon): > 100 µM
TGI (IGROV1 ovarian): > 47 µM
TGI (K-562 leukemia): > 45.1 µM
TGI (KM12 colon): > 22.5 µM
TGI (LOX IMVI melanoma): 1.08 µM
TGI (M14 melanoma): 1.6 µM
TGI (MALME-3M melanoma): 19.7 µM
TGI (MCF7 breast): 1.61 µM
TGI (MDA-MB-231 breast): > 82.2 µM
TGI (MDA-MB-435): > 81 µM
TGI (MDA-N): > 100 µM
TGI (MOLT-4 leukemia): 1.86 µM
TGI (NCI-H226 lung): 1.66 µM
TGI (NCI-H23 lung): 0.401 µM
TGI (NCI-H460 lung): 1.5 µM
TGI (NCI-H522 lung): 3.23 µM
TGI (OVCAR-3 ovarian): 8.95 µM
TGI (OVCAR-4 ovarian): 52.6 µM
TGI (OVCAR-5 ovarian): > 43.5 µM
TGI (OVCAR-8 ovarian): > 20 µM
TGI (PC-3 prostate): > 100 µM
TGI (RPMI-8226 leukemia): 11.4 µM
TGI (RXF 393 renal): 0.218 µM
TGI (SF-295 CNS): 1.37 µM
TGI (SF-539 CNS): 0.0223 µM
TGI (SK-MEL-2 melanoma): 6.59 µM
TGI (SK-MEL-28 melanoma): > 100 µM
TGI (SK-MEL-5 melanoma): 0.452 µM
TGI (SK-OV-3 ovarian): > 64.5 µM
TGI (SN12C renal): > 32.5 µM
TGI (SNB-19 CNS): 0.69 µM
TGI (SNB-75 CNS): 13.3 µM
TGI (SW-620 colon): > 43.7 µM
TGI (T-47D breast): 0.188 µM
TGI (TK-10 renal): > 100 µM
TGI (U251 CNS): 0.669 µM
TGI (UACC-257 melanoma): 11.9 µM
TGI (UACC-62 melanoma): 0.106 µM
TGI (UO-31 renal): 1.4 µM
